Each structure is given as a SMILES string.

In this assay the target is epidermal growth factor receptor tyrosine kinase (EGFR-TK) (Homo sapiens, UniProt P00533). Nature of the assay: ADP-Glo kinase assay, cell-free. In kind it is biochemical. (In ADP-Glo the light output rises with the ADP produced.)
Chain of epidermal growth factor receptor tyrosine kinase (EGFR-TK) (P00533 669-1210 limits assumed): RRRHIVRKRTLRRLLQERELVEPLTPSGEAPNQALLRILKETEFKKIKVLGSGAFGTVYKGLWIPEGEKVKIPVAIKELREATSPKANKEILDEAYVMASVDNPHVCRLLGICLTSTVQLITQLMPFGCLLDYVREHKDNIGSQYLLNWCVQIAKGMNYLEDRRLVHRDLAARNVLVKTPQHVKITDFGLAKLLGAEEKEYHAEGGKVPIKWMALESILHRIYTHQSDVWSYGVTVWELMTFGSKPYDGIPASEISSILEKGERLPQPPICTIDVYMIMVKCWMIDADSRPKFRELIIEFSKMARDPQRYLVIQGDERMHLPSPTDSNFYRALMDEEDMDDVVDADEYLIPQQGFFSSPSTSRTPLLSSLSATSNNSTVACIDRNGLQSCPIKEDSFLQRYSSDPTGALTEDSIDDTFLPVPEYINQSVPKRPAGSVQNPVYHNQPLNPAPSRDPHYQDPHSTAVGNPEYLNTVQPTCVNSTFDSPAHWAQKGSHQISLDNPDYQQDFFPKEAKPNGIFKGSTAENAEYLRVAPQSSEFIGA

By IC50 is commonly meant the concentration needed to halve the response being measured. Low readings indicate greater potency, high ones weaker potency. For the compound `COC(=O)[C@@]12OC[C@]34[C@H]([C@@H](O)[C@@H]1O)[C@@]1(C)CC(=O)C(O)=C(C)[C@@H]1C[C@H]3OC(=O)[C@H](OC(=O)C=C(C)C)[C@@H]24` [brusatol], 333 nM corresponded to half-maximal inhibition (IC50). This lies in the sub-micromolar range.

These data come from publication PMC10413460 (ACS Omega, 2023).
